Data: patent US20160067212A1, “USE OF INSULIN SIGNALING ANTAGONISTS, OPTIONALLY IN COMBINATION OF TRANSFECTION OF NON-BETA CELLS, FOR INDUCING INSULIN PRODUCTION” (UNIVERSITE DE GENEVE, priority 2013, published 2016)
Entries after “also recorded” stand apart in the source; their conditions may differ. Bridges are numbered along the chain shown (N, C = ends). Where no end group is shown, it is not given here.

Tests used:
Pdx1-expressing α-cells = test: Insulin production in Pdx1-expressing α-cells of adult mice with normal β-cell mass after in vivo inhibition of insulin signaling; details: in vivo administration to mice expressing Pdx1 in α-cells; FIG. 7B
Procedure: (§1) DT (Sigma) was administrated by intra-peritoneal (i.p.) injections as previously described (Thorel et al., 2010, supra). DOX (1 mg/ml; Sigma) was added to the drinking water. S961 (Novo-Nordisk) (Vikram and Jena, 2010, Biochem Biophys Res Commun. 398(2):260-5) was injected intravenously (i.v.) twice a day at 200-nmol/kg-body weight, for 4 consecutive days. PPP (Santa-Cruz) and Wortmannin (Sigma) were injected i.p. once a day for 5 consecutive days at 10-mg/kg-body weight and 1-mg/kg-body weight, respectively. Mice received subcutaneous insulin pellets (Linbit) one week apart, if glycaemia exceeded 25 mM.
Pancreatic glucagon and insulin dosages (immunoassays), gene expression analyses by real time PCR as well as histological and morphometric analyses were performed as described (Herrera et al, 1991, Development. 113(4):1257-65; Strom et al, 2007, Development. 134(15):2719-25).
Cryostat sections were 10 μm-thick. The antibodies used were: rabbit and guinea pig anti-Pdx1 (kind gift of C. Wright, 1/5000 and 1/750 respectively), guinea pig anti-porcine insulin (DAKO, 1/400), mouse anti-porcine glucagon (1/1000), mouse anti-somatostatin (BCBC Ab1985, 1/200), rabbit anti-GFP (Molecular Probes, 1/400), rabbit anti-Cpeptide1 (BCBC Ab1044, 1/500), rabbit anti-Cpeptide2 (BCBC Ab1042, 1/500). […]

[1] = Peripheral action of S961 administered in vivo (glycemia); set-up: species or system mice; details: data not shown
Procedure: as §1
To test whether insulin deprivation in absence of β-cell loss can prime α-cells to insulin production, adult mice in which α-cells express Pdx1 (cPdx1OE) were treated with an insulin receptor antagonist, termed S961 (Novo Nordisk), to blunt insulin signaling in peripheral tissues as well as in pancreatic islets (FIG. 7A).
A 5-day treatment to healthy adult mice having a normal β-cell mass led to insulin production in some 18% of Pdx1-expressing α-cells (FIG. 7B). […] Next, the insulin receptor was conditionally inactivated in adult α-cells to assess whether local inhibition of insulin signaling, exclusively at the level of α-cells, is sufficient to prime those cells to insulin production. […]

insulin receptor = target: T1, insulin receptor (Rattus norvegicus, UniProt P15127); details: Vikram and Jena, 2010; cited from earlier work
T1 construct: host or cells: rats, in vivo (endogenous receptor)
T1 sequence (P15127 27-759 limits assumed): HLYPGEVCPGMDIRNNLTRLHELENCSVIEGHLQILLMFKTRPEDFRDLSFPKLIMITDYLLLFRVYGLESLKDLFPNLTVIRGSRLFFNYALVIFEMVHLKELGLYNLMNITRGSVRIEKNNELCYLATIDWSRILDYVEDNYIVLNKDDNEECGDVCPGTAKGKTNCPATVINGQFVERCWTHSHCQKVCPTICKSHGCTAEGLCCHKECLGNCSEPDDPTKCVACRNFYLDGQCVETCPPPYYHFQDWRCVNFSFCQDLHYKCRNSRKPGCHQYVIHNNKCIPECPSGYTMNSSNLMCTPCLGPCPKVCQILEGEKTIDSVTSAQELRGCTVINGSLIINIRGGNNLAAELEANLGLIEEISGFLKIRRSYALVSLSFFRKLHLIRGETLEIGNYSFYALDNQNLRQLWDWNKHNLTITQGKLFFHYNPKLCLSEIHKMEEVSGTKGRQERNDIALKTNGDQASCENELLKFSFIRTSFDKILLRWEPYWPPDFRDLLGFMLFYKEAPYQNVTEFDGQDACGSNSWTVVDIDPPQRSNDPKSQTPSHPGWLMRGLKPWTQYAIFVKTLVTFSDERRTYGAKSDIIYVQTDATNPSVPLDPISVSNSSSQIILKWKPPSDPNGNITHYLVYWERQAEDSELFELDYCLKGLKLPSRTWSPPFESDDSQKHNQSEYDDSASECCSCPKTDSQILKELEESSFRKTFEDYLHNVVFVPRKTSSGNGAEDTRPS
T1 sequence (P15127 764-1383 partner limits assumed): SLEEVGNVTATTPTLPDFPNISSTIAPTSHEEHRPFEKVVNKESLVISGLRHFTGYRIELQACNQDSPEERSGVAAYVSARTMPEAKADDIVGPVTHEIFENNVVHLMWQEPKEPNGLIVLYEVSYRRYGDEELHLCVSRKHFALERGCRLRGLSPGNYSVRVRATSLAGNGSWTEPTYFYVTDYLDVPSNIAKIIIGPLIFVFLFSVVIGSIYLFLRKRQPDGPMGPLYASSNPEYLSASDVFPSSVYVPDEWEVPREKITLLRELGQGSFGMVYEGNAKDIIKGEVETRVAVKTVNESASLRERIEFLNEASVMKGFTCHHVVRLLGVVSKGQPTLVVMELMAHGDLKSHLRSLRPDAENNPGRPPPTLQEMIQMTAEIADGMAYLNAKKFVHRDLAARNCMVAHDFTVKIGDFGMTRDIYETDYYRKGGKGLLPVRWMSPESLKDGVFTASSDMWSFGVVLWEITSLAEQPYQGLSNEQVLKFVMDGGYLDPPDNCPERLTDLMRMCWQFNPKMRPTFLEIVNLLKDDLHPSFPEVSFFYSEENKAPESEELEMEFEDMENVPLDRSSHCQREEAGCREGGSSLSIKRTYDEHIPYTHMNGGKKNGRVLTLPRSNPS

Row | effect on glycemia when administered in vivo [1] | Compound | insulin production triggered in Pdx1-expressing α-cells (in words) (Pdx1-expressing α-cells) | effects of S961 in rats (insulin receptor)
1 | – | COC[C@H]1OC(=O)c2coc3c2[C@@]1(C)C1=C(C3=O)[C@@H]2CCC(=O)[C@@]2(C)C[C@H]1OC(C)=O [wortmannin] | triggers insulin production with similar efficiency; also recorded: produce insulin | –
2 | induces hyperglycemia | GSLDESFYDWFERQLGGGSGGSSLEEEWAQIQCEVWGRGCPSY (disulfide 33-40) [S961] | – | hyperglycemia, hyperinsulinemia, insulin-resistance and depletion of energy stores
